Laboratory results as given in article PMC6145453 (ACS infectious diseases, 2018).
Entries after “also recorded” stand apart in the source; their conditions may differ.

Assays:
[1] = test system: A/Brisbane/59/2007-R (oseltamivir resistant); test: microbe, parasite or virus in culture; format: cell-based; conditions: Influenza A virus, H1N1, A549, 24 h
rWSN-NP/Y40F virus = format: cell-based, influenza A virus
influenza A/WSN/33 virus = format: cell-based
[2] = target: NP (rY40F WSN virus infected A549 cells) (Influenza A virus, UniProt P15682, G34D/P283S/Y40F); format: cell-based

Row | SMILES | IC50 [1] | resistance phenotype of Y40F mutant virus (rWSN-NP/Y40F virus) | maximum virus inhibition while maintaining enough virus production for passages (influenza A/WSN/33 virus) | effect on NP oligomerization [2]
1 | CC(C)(C)c1ccc(C(=O)Nc2ccc(NC(=O)c3ccc(C(C)(C)C)cc3)cc2)cc1 [S119, N,N′-(1,4-Phenylene)bis(4-(tert-butyl)benzamide)] | > 50 µM | resistant phenotype | 3 logs | unaffected
2 | Cc1onc(-c2ccccc2)c1C(=O)N1CCN(c2ccc([N+](=O)[O-])cc2Cl)CC1 [nucleozin, reference compound] |  | minor resistance phenotype |  | altered
3 | CC(C)(C)c1ccc(C(=O)Nc2ccc(Nc3ccccc3)cc2)cc1 [S119-8, 4-(tert-butyl)-N-(4-(phenylamino)-phenyl)benzamide] | 3.85 µM | maintained resistance; also recorded: retains the same Y40F resistant phenotype |  | 
